# Results: patent US20070087346A1, “Orthogonal gene switches” (priority 2003, published 2007)
# Positions count from the first letter of the chain named. Counter-ions that a name gives are not always drawn. Like-named read-outs stand apart in the source and are kept apart here.
# Assays:
# [1] = target: T1, HEA-1 (Homo sapiens, UniProt P03372, G521R); conditions: cell culture; Roscilli et al., 2002; cited from earlier work
# T1 sequence (P03372 303-595 G521R): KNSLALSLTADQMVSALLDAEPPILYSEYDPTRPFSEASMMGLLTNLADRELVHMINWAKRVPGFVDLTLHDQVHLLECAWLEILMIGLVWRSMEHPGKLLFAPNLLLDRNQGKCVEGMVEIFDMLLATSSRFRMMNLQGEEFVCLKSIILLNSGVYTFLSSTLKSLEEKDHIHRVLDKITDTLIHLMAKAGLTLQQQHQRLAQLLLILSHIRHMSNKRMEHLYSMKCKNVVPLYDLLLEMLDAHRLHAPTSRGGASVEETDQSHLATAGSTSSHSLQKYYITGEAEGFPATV
# [2] = target: T2, GST-ERα wt-LBD (Homo sapiens, UniProt P03372); assay: competitive radiometric 3[H]E2 displacement binding assay, wt LBD
# T2 construct: made in house; host or cells: E. coli BL21 (CodonPlus DE3-RIL)
# T2 sequence (P03372 303-595): T1 sequence (P03372 303-595 G521R) with R219G
# Description: Microplates (Basic Flashplates, NEN) wells were coated for 12 hrs at 4° C. with 100 μl of PBS containing anti-GST antibodies (Amersham) at a concentration of 5 μg/ml. After washing three times with 200 μl of PBS, the background was reduced by saturating with 200 μl of PBS containing 1% BSA for 3 hrs at 4° C. Wells were then washed three times with 200 μl of lysis buffer containing 0.1 M NaCl and 0.2% n-Dodecyl BD-maltoside (assay buffer).
# Suitable amounts of crude E. coli supernatants containing the GST-ER LBD proteins (2-10 μl) or of purified polypeptides (8 nM) were bound to the anti-GST antibody-coated wells for 1 hr at 23° C. in 200 μl of the assay buffer with constant agitation. After three more washes with 200 μl of the same buffer, the ligand-binding reaction was set up in 195 μl of assay buffer containing 2 nM-10 nM 3[H]E2 and 5 μl of DMSO or of suitable dilutions of the test compounds in DMSO. Incubation was for 2 hrs at 23° C. with constant shaking, followed by SPA radioactivity measurement using a microplate scintillation and luminescence counter (Top Count NXT, Packard). IC50 values were obtained by multiparameter logistic fitting of the experimental data with the aid of a Kaleidagraph software.
# [3] = target: T3, hERα (Homo sapiens, UniProt P03372); assay: binding to full-length hERα
# T3 construct: relative to the wt LBD and to both α and β full-length ER
# T3 sequence (P03372 1-595): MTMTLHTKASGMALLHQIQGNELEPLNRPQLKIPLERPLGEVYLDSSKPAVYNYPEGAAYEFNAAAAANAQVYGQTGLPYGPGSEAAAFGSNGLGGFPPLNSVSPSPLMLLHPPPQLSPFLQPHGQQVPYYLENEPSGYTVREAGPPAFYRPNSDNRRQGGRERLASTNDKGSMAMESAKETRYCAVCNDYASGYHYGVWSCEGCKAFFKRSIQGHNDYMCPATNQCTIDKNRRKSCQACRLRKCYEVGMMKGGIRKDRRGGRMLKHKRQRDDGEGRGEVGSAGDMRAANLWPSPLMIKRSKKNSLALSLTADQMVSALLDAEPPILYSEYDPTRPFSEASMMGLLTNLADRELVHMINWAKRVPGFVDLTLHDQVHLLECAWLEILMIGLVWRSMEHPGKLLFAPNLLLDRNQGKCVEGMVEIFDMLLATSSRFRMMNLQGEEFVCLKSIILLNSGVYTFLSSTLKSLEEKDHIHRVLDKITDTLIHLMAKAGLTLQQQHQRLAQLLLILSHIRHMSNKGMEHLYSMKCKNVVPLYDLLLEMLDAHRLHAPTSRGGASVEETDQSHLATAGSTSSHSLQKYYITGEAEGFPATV
# [4] = target: hERβ (Homo sapiens, UniProt Q92731); assay: binding to full-length hERβ; conditions: full-length receptor
# [5] = system: MG-LBD variant with Gly521 substituted with Val, Leu, Met, or Arg; assay: β-Galactosidase transcription assay in yeast, Gly521 substitutions in MG-LBD; format: cell-based, human; conditions: data not shown
# [6] = 3[H]E2 displacement, read-out: GST-ERα wt-LBD IC50
# [7] = full-length receptor, read-out: hERα IC50
# Sequence of hERβ (Q92731 whole entry, the tested form may be a part): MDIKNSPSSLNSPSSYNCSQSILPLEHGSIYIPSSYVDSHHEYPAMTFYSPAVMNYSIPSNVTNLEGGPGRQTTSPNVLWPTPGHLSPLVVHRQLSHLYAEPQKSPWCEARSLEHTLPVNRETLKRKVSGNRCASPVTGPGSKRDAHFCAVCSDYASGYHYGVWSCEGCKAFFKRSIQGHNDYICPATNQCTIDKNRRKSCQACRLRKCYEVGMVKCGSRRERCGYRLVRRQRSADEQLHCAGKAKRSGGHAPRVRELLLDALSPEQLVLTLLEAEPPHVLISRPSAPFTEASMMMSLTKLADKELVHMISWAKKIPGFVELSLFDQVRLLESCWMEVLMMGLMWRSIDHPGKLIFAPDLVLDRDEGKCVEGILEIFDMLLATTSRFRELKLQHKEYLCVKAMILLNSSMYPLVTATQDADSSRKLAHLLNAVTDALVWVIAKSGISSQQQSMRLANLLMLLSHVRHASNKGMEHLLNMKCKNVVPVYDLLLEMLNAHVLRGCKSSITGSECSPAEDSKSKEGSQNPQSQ
"IC50 [2, 6]",IC50 [4],"IC50 [3, 7]",Compound,other results
> 10000 nM,1250 nM,> 10000 nM,"CC1=C2c3ccc4[nH]ncc4c3CC2(Cc2ccccc2)CCC1=O (stereo not shown) [CMP5, 6-methyl-9a-ben-zyl-8,9,9a,10-tetra-hydroindeno[2,1-e]in-dazol-7(3H)-one]",–
–,96 nM,–,"O=C1CCC2(Cc3ccccc3)Cc3cc(O)ccc3C2=C1c1ccc(O)cc1 (stereo not shown) [CMP6, 9a-benzyl-7-hydroxy-4-(4-hy-droxyphenyl)-1,2,9,9a-tetra-hydro-3H-flour-en-3-one]",IC50 [2]: 1370 nM; IC50 [3]: 223 nM
1310 nM,307 nM,259 nM,"CCCCC1=C2c3ccc(O)cc3CC2(Cc2ccccc2)CCC1=O (stereo not shown) [CMP7, 9a-benzyl-4-butyl-7-hy-droxy-1,2,9,9a-tetra-hydro-3H-fluor-en-3-one]",–
4440 nM,2230 nM,1080 nM,"O=C1CCC2(Cc3ccc(Cl)cc3)Cc3cc(O)ccc3C2=C1c1ccc(OCCN2CCCCC2)cc1 (stereo not shown) [CMP8, 9a-(4-chlorobenzyl)-7-hy-droxy-4-{4-[2-(1-pipe-ridinyl)-eth-oxy]phenyl}-1,2,9,9a-tetra-hydro-3H-fluor-en-3-one]",–
–,125 nM,–,"O=C1CCC2(Cc3ccccc3)Cc3c(ccc4[nH]ncc34)C2=C1c1ccc(OCCN2CCCCC2)cc1 (stereo not shown) [CMP9, 9a-benzyl-6-{4-[2-(1-pipe-ridinyl)eth-oxy]phenyl}-8,9,9a,10-tetra-hydroindeno[2,1-e]in-dazol-7(3H)-one hydrotrifluoroacetae salt]",–
–,184 nM,–,"O=C1CCC2(Cc3ccccc3)Cc3cc(O)ccc3C2=C1c1ccc(OCCN2CCCCC2)cc1 (stereo not shown) [CMP10, 9a-benzyl-7-hy-droxy-4-{4-[2-(1-pipe-ridinyl)-eth-oxy]phenyl}-1,2,9,9a-tetra-hydro-3H-fluor-en-3-one]",IC50 [2]: 1270 nM; IC50 [3]: 375 nM
4170 nM,–,–,"CN(C)CCOc1ccc(C2=C3c4ccc(O)cc4CC3(Cc3ccccc3)CCC2=O)cc1 (stereo not shown) [CMP12, 9a-benzyl-4-{4-[2-(di-methylamino)ethoxy]phe-nyl}-7-hydroxy-1,2,9,9a-tetra-hydro-3H-fluor-en-3-one]",–
> 3600 nM,–,–,"O=C1CCC2(Cc3ccccc3)Cc3cc(O)ccc3C2=C1c1ccccn1 (stereo not shown) [CMP13, 9a-benzyl-7-hydroxy-4-py-ridin-2-yl-1,2,9,9a-tetra-hydro-3H-fluor-en-3-one]",–
> 3600 nM,–,–,"O=C1CCC2(Cc3ccccc3)Cc3cc(O)ccc3C2=C1c1cccnc1 (stereo not shown) [CMP14, 9a-benzyl-7-hydroxy-4-py-ridin-3-yl-1,2,9,9a-tetra-hydro-3H-fluor-en-3-one]",–
725 nM,558 nM,1180 nM,"O=C1CCC2(Cc3ccccc3)Cc3cc(O)ccc3C2=C1c1ccncc1 (stereo not shown) [CMP15, 9a-benzyl-7-hydroxy-4-py-ridin-4-yl-1,2,9,9a-tetra-hydro-3H-fluor-en-3-one]",–
> 180000 nM,–,–,"CC1=C2c3cc(Br)c(O)c(Br)c3CC2(Cc2ccccc2)CCC1=O (stereo not shown) [CMP24, 9a-benzyl-6,8-di-bromo-7-hydroxy-4-meth-yl-1,2,9,9a-tetra-hydro-3%{H}-fluor-en-3-one]",–

# Second part, the compound before the results:
Compound,"IC50 [2, 6]",IC50 [4],"IC50 [3, 7]",other results
4 hydroxytamoxifen [4-OH Tam],–,–,–,drug-dependent transgene induction [1]: up to hundred-fold
"CC1=C2c3ccc(O)cc3CC2(Cc2ccccc2)CCC1=O (stereo not shown) [CMP4, 9a-benzyl-7-hy-droxy-4-methyl-1,2,9,9a-tetra-hydro-3H-fluor-en-3-one]",2320 nM,506 nM,–,IC50 [3]: 1470 nM; response (trans-activation in yeast) [5]: dramatic loss of response
"O=C1CCC2(Cc3ccccc3)Cc3cc(O)ccc3C2=C1c1ccc(OCCN2CCOCC2)cc1 (stereo not shown) [CMP11, 9a-benzyl-7-hy-droxy-4-{4-[2-(4-mor-pholinyl)-eth-oxy]phenyl}-1,2,9,9a-tetra-hydro-3H-fluor-en-3-one]",–,–,–,IC50 [2]: 2310 nM
"CC1=C2c3ccc(O)cc3CC2(Cc2ccc(Cl)cc2)CCC1=O (stereo not shown) [CMP17, 9a-(4-chlorobenzyl)-7-hy-droxy-4-methyl-1,2,9,9a-tetra-hydro-3%{H}-fluor-en-3-one]",6830 nM,–,–,–
"CC1=C2c3ccc4[nH]ncc4c3CC2(Cc2ccc(F)cc2)CCC1=O (stereo not shown) [CMP25, 6-methyl-9a-(4-fluoro-benzyl)-8,9,9a,10-tetra-hydroindeno[2,1-e]in-dazol-7(3H)-one]",–,997 nM,–,–
"CC1=C2c3ccc4[nH]ncc4c3CC2(Cc2cccc(F)c2)CCC1=O (stereo not shown) [CMP26, 6-methyl-9a-(3-fluoro-benzyl)-8,9,9a,10-tetra-hydroindeno[2,1-e]in-dazol-7(3H)-one]",–,1070 nM,–,–
"CC1=C2c3ccc4[nH]ncc4c3CC2(Cc2ccccc2F)CCC1=O (stereo not shown) [CMP27, 6-methyl-9a-(2-fluoro-benzyl)-8,9,9a,10-tetra-hydroindeno[2,1-e]in-dazol-7(3H)-one]",–,529 nM,4300 nM,–
"CC1=C2c3ccc4nn[nH]c4c3CC2(Cc2ccccc2)CCC1=O (stereo not shown) [CMP30, 9a-benzyl-6-methyl-8,9,9a,10-tetra-hydrofluoreno[1,2-d][1,2,3]tri-azol-7(3H)-one]",–,4190 nM,–,–
"CC1=C2c3ccc4[nH]nnc4c3CC2(Cc2ccccc2C(F)(F)F)CCC1=O (stereo not shown) [CMP34, 9a-[2-(tri-fluoromethyl)benzyl]-6-meth-yl-8,9,9a,10-tetra-hydrofluoreno[1,2-d][1,2,3]tri-azol-7(3H)-one]",–,> 10000 nM,> 10000 nM,–
